# Legend:
# [1] = Pharmacokinetics by GC/MS, brain and spinal cord; assay type: in vivo, rat; settings: 12 mg/kg subcutaneous in sesame oil; 1, 4, 8, 24 hours
# Experimental: FIG. 9: Kinetics of the appearance of 3-methoxy-PREG (43B) in rat brain and spinal cord following subcutaneous injection of 43B (12 mg/kg) in a sesame oil solution.
# The pharmacokinetics of the molecules tested in vivo are evaluated using gas chromatography/mass spectrometry (GC/MS) assays.
# [2] = molecular target: T1, human progesterone receptor (PR) (Homo sapiens, UniProt P06401); experiment: Test of progesterone receptor agonist activity (luciferase transactivation, HEK293T); assay type: cell-based; settings: 24 hours, increasing amounts
# T1 construct: expressed in transfected cells; host or cells: HEK293T cells
# T1 sequence (P06401 1-933): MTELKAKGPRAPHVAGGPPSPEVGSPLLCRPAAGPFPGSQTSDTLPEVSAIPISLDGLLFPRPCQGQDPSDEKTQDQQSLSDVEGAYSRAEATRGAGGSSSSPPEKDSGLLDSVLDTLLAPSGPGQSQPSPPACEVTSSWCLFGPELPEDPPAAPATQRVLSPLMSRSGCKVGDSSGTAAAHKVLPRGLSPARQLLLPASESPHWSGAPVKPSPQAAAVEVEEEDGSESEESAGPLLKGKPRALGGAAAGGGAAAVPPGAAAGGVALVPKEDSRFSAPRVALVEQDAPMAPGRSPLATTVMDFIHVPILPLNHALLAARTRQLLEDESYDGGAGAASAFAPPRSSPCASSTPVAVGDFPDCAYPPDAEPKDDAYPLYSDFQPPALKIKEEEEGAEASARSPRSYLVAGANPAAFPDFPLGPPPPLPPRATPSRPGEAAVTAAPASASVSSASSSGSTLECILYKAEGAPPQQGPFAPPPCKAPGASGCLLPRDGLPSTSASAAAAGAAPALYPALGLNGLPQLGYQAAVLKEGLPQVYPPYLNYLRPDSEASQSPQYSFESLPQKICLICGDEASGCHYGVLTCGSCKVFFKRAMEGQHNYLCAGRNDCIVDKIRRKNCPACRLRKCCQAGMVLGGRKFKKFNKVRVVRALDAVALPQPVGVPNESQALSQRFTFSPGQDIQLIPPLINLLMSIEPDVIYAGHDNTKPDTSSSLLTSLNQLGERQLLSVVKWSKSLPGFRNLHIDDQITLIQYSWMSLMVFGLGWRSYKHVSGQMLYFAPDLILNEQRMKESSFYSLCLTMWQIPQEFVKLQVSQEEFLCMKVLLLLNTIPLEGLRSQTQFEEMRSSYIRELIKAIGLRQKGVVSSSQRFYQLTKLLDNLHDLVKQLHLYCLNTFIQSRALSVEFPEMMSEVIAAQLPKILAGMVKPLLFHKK
# Experimental: The main experimental setting used is the following: HEK293T cells were transiently transfected, using calcium phosphate precipitation technology, with expression receptors pSG5hPR (which permits expression of human progesterone receptor (PR)), pFC31-luc (contains the luciferase gene under the control of the MTV promoter, which is in turn activated by binding of a progestin to progesterone receptor) and pcbetagal (which permits expression of betagalactosidase), and cultured during 24 hours with increasing amounts of various compositions: • 1. […] Test of progesterone receptor […] activity: transfected cells were cultured with progesterone (1 nM) and increasing amounts of RU486 (a well-known progesterone receptor antagonist) or 3-methoxy-pregnenolone. • With this setting, a compound with progesterone receptor antagonist activity competes with progesterone for the occupation of progesterone receptor and results in a progressive loss of transactivation activity when the amount of this compound is increased compared to progesterone. Results
# [3] = test system: PC12 cells; experiment: Neuritic growth / sprouting of PC12 cells in the presence of NGF; assay type: cell-based, rat; settings: increasing concentrations, 2, 5 and 8 days of culture, NGF 10 ng/ml
# Experimental: Each molecule was tested in three culture wells. Measurements were taken for 200 cells per well using Scion Image software.
# Neurite (neurite) length was measured for 200 cells per well after 2, 5, and 8 days of culture.
# To rest the effect of selected molecules on neuritic growth, we first used the PC12 line, which has long been employed in neurobiological research. In the presence of NOF (nerve growth factor), the cells of this line, which arise from a rat pheochromocytoma, form neuritic extensions containing MAP-associated microtubules.
# Stimulation of neuritic sprouting is conducted on PC12 cells differentiated in the presence of NGF (10 ng/ml) and the steroid being tested (30 μM) for 3 days. For each condition, the average length of the longest 200 neurites in each cell is measured simultaneously for 3 cultures.
# [4] = test system: PSD95; experiment: Western blot of PSD95 in cortex and hippocampus after CCI; assay type: in vivo, rat; settings: day 35, 20 mg/kg, first injection 2 h post-trauma, ipsilateral injured cortex and hippocampus, contralateral cortex
# Experimental: CCI was performed with an electromagnetic impact device as described (MyNeurolab, St. Louis, Mo.; Brody et al, 2007). Anesthesized rats were subjected to a single right lateral CCI, with the following parameters impact centered 4.0 mm anterior to lambda and 4.5 mm […] of midline, within the craniotomy of the animal. The impact was set at a velocity of 4 m/s with a sustained depression of 200 ms, using a 5.0 mm tip.
# Samples were analyzed by Western-blot at day 35 post-trauma (D35) to evaluate the effects of MAP4343 on: MAP2 (the target of MAP4343 and a modulator of microtubule function), the post-synaptic markers PSD95 and spinophilin, the pre-synaptic marker synaptophysin, and the axonal growth/integrity marker […].
# Western blot was performed on cortex and hippocampus of TBI-injured animals receiving the first injection of MAP4343 (at 10 mg/kg or 20 mg/kg) or vehicle (sesame oil) 2 h after injury.
# The expression level of various neuronal brain markers of plasticity was measured at day 35 post-trauma by western-blots in the cortex and hippocampus of left uninjured and right injured cerebral hemispheres of CCI traumatized animals receiving either vehicle (sesame oil, CCI-D0) or 3-methoxy-PREG (MAP4343) at 10 mg/kg (CCI-D1) or 20 mg/kg (CCI-D2), with first MAP4343 injection 2 h post-trauma.
# [5] = test system: Sprague Dawley rats; experiment: Forced swimming test (FST); assay type: in vivo, rat; settings: 10 mg/kg subcutaneously, 24, 5, 1 h before testing
# Experimental: Drugs were administered following the traditional dosing regimen used in the FST consisting of three injections: 24, 5, 1 h before testing.
# The FET is currently the most widely used animal model for assessing depression related behavior and antidepressant drug activity in rodents (Cryan et al., Neubiorev. 2005). Rats are placed in an inescapable cylinder of water where they develop an immobile posture believed to reflect a “depressive”-like state. The Lime rats spend immobile is decreased by drugs exerting antidepressant activity.
# Additional behaviors can be detected in the FST; namely, climbing and swimming. It has been shown that swimming behavior is sensitive to SSRIs such as fluoxetine whereas climbing is sensitive to norepinephrine re-uptake inhibitors (NRI) such as desipramine.
smiles,measurement,setting,value
"CO[C@H]1CC[C@@]2(C)C(=CC[C@H]3[C@@H]4CC[C@H](C(C)=O)[C@@]4(C)CC[C@@H]32)C1 [3-methoxy-PREG, 3β-methoxy-pregna-5-ene-20-one]",penetration into spinal cord and brain,[1],penetrates rapidly into the spinal cord and the brain
same,progesterone receptor agonist activity (transactivation),[2],does not have progesterone receptor agonist activity
same,increase in the length of neurites,[3],≤ 500%
same,PSD95 expression,[4],increase in PSD95 expression
same,rat climbing behavior in the FST,[5],not changed
same,rat immobility in the FST,[5],significantly decreased
same,rat swimming in the FST,[5],significantly increased
